Assay results taken from ChEMBL document CHEMBL1201862, “PubChem BioAssay data set” (2004).
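48-hour exposure; five concentrations; linearly interpolated endpoints. At the GI50, growth is halved.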 The source made the active and inactive calls. No stated cut-off is given here; in the data, active = GI50 up to about 1.1 µM and inactive = higher.

Assays:
Test in all cases: DTP human tumour cell line panel, 48 h
786-0 = system: 786-0
A498 = system: A498
A549 = system: A549
ACHN = system: ACHN
BT-549 = system: BT-549
CCRF-CEM = system: CCRF-CEM
COLO 205 = system: COLO 205
DU-145 = system: DU-145
EKVX = system: EKVX
HCC 2998 = system: HCC 2998
HCT-116 = system: HCT-116
HCT-15 = system: HCT-15
HL-60 = system: HL-60
HOP-62 = system: HOP-62
HOP-92 = system: HOP-92
HT-29 = system: HT-29
Hs-578T = system: Hs-578T
IGROV-1 = system: IGROV-1
K562 = system: K562
KM12 = system: KM12
LOX IMVI = system: LOX IMVI
M14 = system: M14
MCF7 = system: MCF7
MDA-MB-231 = system: MDA-MB-231
MDA-MB-435 = system: MDA-MB-435
MDA-N = system: MDA-N
MOLT-4 = system: MOLT-4
Malme-3M = system: Malme-3M
NCI-H226 = system: NCI-H226
NCI-H23 = system: NCI-H23
NCI-H460 = system: NCI-H460
NCI-H522 = system: NCI-H522
NCI/ADR-RES = system: NCI/ADR-RES
OVCAR-3 = system: OVCAR-3
OVCAR-4 = system: OVCAR-4
OVCAR-5 = system: OVCAR-5
OVCAR-8 = system: OVCAR-8
PC-3 = system: PC-3
RPMI-8226 = system: RPMI-8226
RXF 393 = system: RXF 393
SF-268 = system: SF-268
SF-295 = system: SF-295
SF-539 = system: SF-539
SK-MEL-28 = system: SK-MEL-28
SK-MEL-5 = system: SK-MEL-5
SK-OV-3 = system: SK-OV-3
SN12C = system: SN12C
SNB-19 = system: SNB-19
SNB-75 = system: SNB-75
SR = system: SR
SW-620 = system: SW-620
T47D = system: T47D
TK-10 = system: TK-10
U-251 = system: U-251
UACC-257 = system: UACC-257
UACC-62 = system: UACC-62
UO-31 = system: UO-31
CAKI-1 = system: CAKI-1
SK-MEL-2 = system: SK-MEL-2

O=C(Nn1c(-c2ccccc2)nc2ccccc2c1=O)c1ccc([N+](=O)[O-])cc1
GI50 (786-0): > 100 µM (inactive) | GI50 (A498): 46.7 µM (inactive) | GI50 (A549): > 100 µM (inactive) | GI50 (ACHN): > 100 µM (inactive) | GI50 (BT-549): 55.7 µM (inactive) | GI50 (CCRF-CEM): > 100 µM (inactive) | GI50 (COLO 205): > 100 µM (inactive) | GI50 (DU-145): > 100 µM (inactive) | GI50 (EKVX): > 100 µM (inactive) | GI50 (HCC 2998): > 100 µM (inactive) | GI50 (HCT-116): > 10 µM (inactive) | GI50 (HCT-15): > 100 µM | GI50 (HL-60): > 100 µM (inactive) | GI50 (HOP-62): > 100 µM (inactive) | GI50 (HOP-92): 32.4 µM (inactive) | GI50 (HT-29): > 100 µM (inactive) | GI50 (Hs-578T): > 100 µM (inactive) | GI50 (IGROV-1): > 100 µM (inactive) | GI50 (K562): > 100 µM (inactive) | GI50 (KM12): > 100 µM (inactive) | GI50 (LOX IMVI): > 100 µM (inactive) | GI50 (M14): > 100 µM (inactive) | GI50 (MCF7): 58.7 µM (inactive) | GI50 (MDA-MB-231): > 100 µM (inactive) | GI50 (MDA-MB-435): > 100 µM (inactive) | GI50 (MDA-N): > 100 µM (inactive) | GI50 (MOLT-4): > 100 µM (inactive) | GI50 (Malme-3M): > 100 µM (inactive) | GI50 (NCI-H226): 46.3 µM (inactive) | GI50 (NCI-H23): > 100 µM (inactive) | GI50 (NCI-H460): > 100 µM (inactive) | GI50 (NCI-H522): > 100 µM (inactive) | GI50 (NCI/ADR-RES): > 100 µM (inactive) | GI50 (OVCAR-3): > 100 µM (inactive) | GI50 (OVCAR-4): > 100 µM (inactive) | GI50 (OVCAR-5): > 100 µM (inactive) | GI50 (OVCAR-8): > 100 µM (inactive) | GI50 (PC-3): > 100 µM (inactive) | GI50 (RPMI-8226): > 100 µM (inactive) | GI50 (RXF 393): 49.2 µM (inactive) | GI50 (SF-268): > 100 µM (inactive) | GI50 (SF-295): > 100 µM (inactive) | GI50 (SF-539): > 100 µM (inactive) | GI50 (SK-MEL-28): 72.3 µM (inactive) | GI50 (SK-MEL-5): 64.1 µM (inactive) | GI50 (SK-OV-3): > 100 µM (inactive) | GI50 (SN12C): > 100 µM (inactive) | GI50 (SNB-19): > 100 µM (inactive) | GI50 (SNB-75): > 100 µM (inactive) | GI50 (SR): > 100 µM (inactive) | GI50 (SW-620): > 100 µM (inactive) | GI50 (T47D): > 100 µM (inactive) | GI50 (TK-10): > 100 µM (inactive) | GI50 (U-251): > 100 µM (inactive) | GI50 (UACC-257): > 100 µM (inactive) | GI50 (UACC-62): 45.2 µM (inactive) | GI50 (UO-31): > 100 µM (inactive)

CC(C)(C)C(=O)OCC1CCC[N+]2(C)CCCCC12 (stereo not given)
GI50 (786-0): > 100 µM (inactive) | GI50 (A498): > 100 µM (inactive) | GI50 (A549): > 100 µM (inactive) | GI50 (ACHN): > 100 µM (inactive) | GI50 (BT-549): > 100 µM (inactive) | GI50 (CAKI-1): > 100 µM (inactive) | GI50 (CCRF-CEM): > 100 µM (inactive) | GI50 (COLO 205): > 100 µM (inactive) | GI50 (DU-145): > 100 µM (inactive) | GI50 (EKVX): > 100 µM (inactive) | GI50 (HCC 2998): > 100 µM (inactive) | GI50 (HCT-116): > 100 µM (inactive) | GI50 (HCT-15): > 100 µM | GI50 (HOP-62): > 100 µM (inactive) | GI50 (HOP-92): > 100 µM (inactive) | GI50 (HT-29): > 100 µM (inactive) | GI50 (Hs-578T): > 100 µM (inactive) | GI50 (IGROV-1): > 100 µM (inactive) | GI50 (K562): > 100 µM (inactive) | GI50 (KM12): > 100 µM (inactive) | GI50 (LOX IMVI): > 100 µM (inactive) | GI50 (M14): > 100 µM (inactive) | GI50 (MCF7): > 100 µM (inactive) | GI50 (MDA-MB-231): > 100 µM (inactive) | GI50 (MDA-MB-435): > 100 µM (inactive) | GI50 (MDA-N): > 100 µM (inactive) | GI50 (MOLT-4): > 100 µM (inactive) | GI50 (Malme-3M): > 100 µM (inactive) | GI50 (NCI-H226): > 100 µM (inactive) | GI50 (NCI-H23): > 100 µM (inactive) | GI50 (NCI-H460): > 100 µM (inactive) | GI50 (NCI/ADR-RES): > 100 µM (inactive) | GI50 (OVCAR-3): > 100 µM (inactive) | GI50 (OVCAR-4): > 100 µM (inactive) | GI50 (OVCAR-5): > 100 µM (inactive) | GI50 (OVCAR-8): > 100 µM (inactive) | GI50 (PC-3): > 100 µM (inactive) | GI50 (RPMI-8226): > 100 µM (inactive) | GI50 (RXF 393): > 100 µM (inactive) | GI50 (SF-268): > 100 µM (inactive) | GI50 (SF-295): > 100 µM (inactive) | GI50 (SF-539): > 100 µM (inactive) | GI50 (SK-MEL-28): > 100 µM (inactive) | GI50 (SK-MEL-2): > 100 µM (inactive) | GI50 (SK-MEL-5): > 100 µM (inactive) | GI50 (SK-OV-3): > 100 µM (inactive) | GI50 (SN12C): > 100 µM (inactive) | GI50 (SNB-19): > 100 µM (inactive) | GI50 (SNB-75): > 100 µM (inactive) | GI50 (SR): > 100 µM (inactive) | GI50 (SW-620): > 100 µM (inactive) | GI50 (T47D): > 100 µM (inactive) | GI50 (TK-10): > 100 µM (inactive) | GI50 (U-251): > 100 µM (inactive) | GI50 (UACC-257): > 100 µM (inactive) | GI50 (UACC-62): > 100 µM (inactive) | GI50 (UO-31): > 100 µM (inactive)

CN(C)C(Cc1c[nH]cn1)C(=O)N1CCCC1C(N)=O (stereo not given)
GI50 (786-0): > 100 µM (inactive) | GI50 (A498): 22.9 µM (inactive) | GI50 (A549): > 100 µM (inactive) | GI50 (ACHN): > 100 µM (inactive) | GI50 (BT-549): > 100 µM (inactive) | GI50 (CAKI-1): > 100 µM (inactive) | GI50 (CCRF-CEM): > 100 µM (inactive) | GI50 (COLO 205): > 100 µM (inactive) | GI50 (DU-145): > 100 µM (inactive) | GI50 (EKVX): > 100 µM (inactive) | GI50 (HCC 2998): > 100 µM (inactive) | GI50 (HCT-116): > 100 µM (inactive) | GI50 (HCT-15): > 100 µM | GI50 (HL-60): > 100 µM (inactive) | GI50 (HOP-62): > 100 µM (inactive) | GI50 (HOP-92): > 100 µM (inactive) | GI50 (HT-29): > 100 µM (inactive) | GI50 (Hs-578T): > 100 µM (inactive) | GI50 (IGROV-1): > 100 µM (inactive) | GI50 (K562): > 100 µM (inactive) | GI50 (KM12): > 100 µM (inactive) | GI50 (LOX IMVI): > 100 µM (inactive) | GI50 (M14): > 100 µM (inactive) | GI50 (MCF7): > 100 µM (inactive) | GI50 (MDA-MB-231): > 100 µM (inactive) | GI50 (MDA-MB-435): > 100 µM (inactive) | GI50 (MDA-N): > 100 µM (inactive) | GI50 (MOLT-4): > 100 µM (inactive) | GI50 (Malme-3M): > 100 µM (inactive) | GI50 (NCI-H226): > 100 µM (inactive) | GI50 (NCI-H23): > 100 µM (inactive) | GI50 (NCI-H460): > 100 µM (inactive) | GI50 (NCI-H522): > 100 µM (inactive) | GI50 (NCI/ADR-RES): > 100 µM (inactive) | GI50 (OVCAR-3): > 100 µM (inactive) | GI50 (OVCAR-4): > 100 µM (inactive) | GI50 (OVCAR-5): > 100 µM (inactive) | GI50 (OVCAR-8): > 100 µM (inactive) | GI50 (PC-3): > 100 µM (inactive) | GI50 (RPMI-8226): > 100 µM (inactive) | GI50 (RXF 393): > 100 µM (inactive) | GI50 (SF-268): > 100 µM (inactive) | GI50 (SF-295): > 100 µM (inactive) | GI50 (SK-MEL-28): > 100 µM (inactive) | GI50 (SK-MEL-5): > 100 µM (inactive) | GI50 (SK-OV-3): > 100 µM (inactive) | GI50 (SN12C): > 100 µM (inactive) | GI50 (SNB-19): > 100 µM (inactive) | GI50 (SNB-75): > 100 µM (inactive) | GI50 (SR): > 100 µM (inactive) | GI50 (SW-620): > 100 µM (inactive) | GI50 (T47D): > 100 µM (inactive) | GI50 (TK-10): > 100 µM (inactive) | GI50 (U-251): > 100 µM (inactive) | GI50 (UACC-62): > 100 µM (inactive) | GI50 (UO-31): > 100 µM (inactive)
